Laboratory results published in ChEMBL document CHEMBL1136541, “D-Phe-Pro-Arg type thrombin inhibitors: unexpected selectivity by modification of the P1 moiety” (Bioorg Med Chem Lett, 2003).

Biological target: T1, Serine protease 1 (Bos taurus, UniProt P00760)
T1 sequence (P00760 whole entry): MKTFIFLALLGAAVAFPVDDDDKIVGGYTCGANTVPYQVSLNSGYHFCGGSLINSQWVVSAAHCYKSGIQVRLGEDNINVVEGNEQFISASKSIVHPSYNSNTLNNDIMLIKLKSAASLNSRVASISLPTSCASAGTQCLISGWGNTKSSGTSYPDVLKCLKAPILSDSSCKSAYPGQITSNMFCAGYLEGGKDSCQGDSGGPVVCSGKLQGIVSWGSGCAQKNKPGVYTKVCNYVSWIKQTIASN
Experiment: In vitro inhibitory activity against trypsin

IC50 [nM]	Compound
16	Cn1c(CNC(=O)[C@@H]2C=CCN2C(=O)[C@@H](CC2CCCCC2)NCC(=O)O)ccc1C(=N)N
306	Cn1cc(CNC(=O)[C@@H]2C=CCN2C(=O)[C@@H](CC2CCCCC2)NCC(=O)O)cc1C(=N)N
